According to US8637516B2 (IRM LLC, priority 2010, dated 2014):

Columns and labels:
[1] = target: T1, Ba/F3 cells transformed with human Tel-TrkA (Homo sapiens, UniProt P04629); assay: Proliferation of Ba/F3 cells transformed with human Tel-TrkA (Ba/F3 Tel-TrkA); type: cell-based; settings: Table 1; 48 hours, Bright Glo luminescence; read-out: Ba/F3 Tel-TrkA
T1 construct: expressed in transfected cells; host or cells: Ba/F3 murine hematopoietic progenitor cells (luciferase expressing); the other entry of the earlier key: ETV6 (P41212, Transcription factor ETV6)
T1 sequence (P04629 510-796 limits assumed): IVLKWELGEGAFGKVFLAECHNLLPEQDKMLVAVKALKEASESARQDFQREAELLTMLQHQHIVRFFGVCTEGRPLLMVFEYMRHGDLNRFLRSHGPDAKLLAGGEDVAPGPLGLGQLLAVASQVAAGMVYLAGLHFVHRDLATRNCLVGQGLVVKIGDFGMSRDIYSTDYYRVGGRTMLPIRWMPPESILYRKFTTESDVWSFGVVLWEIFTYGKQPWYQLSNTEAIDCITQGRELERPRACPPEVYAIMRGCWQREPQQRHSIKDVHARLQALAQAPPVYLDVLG
Excerpt: (§1) Compound dilutions were made in 384 well plates.
(§2) The emited luminiscence is quantified using ViewLux (PerkinElmer).

parental Ba/F3 cells = assay: Proliferation of parental (untransformed, wt) Ba/F3 cells (BAF3/WT); type: cell-based, murine; settings: Mus musculus, Table 1, parental cells with IL3, 48 hours
Experimental: as §1
Compounds were tested for their ability to inhibit the proliferation of wt Ba/F3 cells and Ba/F3 cells transformed with constitutively expressed luciferase reporter and BCR-ABL or Tel-FMS or other Tel fusion kinases (EGFR, JAK2, ALK, BMX, FGFR3, FGFR4, FGR2, FLT1, FLT3, IGF1R, INSR, KDR, KIT, LCK, LYN, MEK, MET, PDGFRα, PDGFRβ, RET, RON, ROS, SRC, SYK, TIE and TYRO) or BRafV600E. Parental Ba/F3 cells were maintained in media containing recombinant mouse IL3 and the kinase transformed Ba/F3 cells were maintained in media without IL-3. 7.5 nl of compounds were spotted to each well of 1536-well assay plates by Liquid handling System Echo 555 (Labcyte). 700 cells were then plated into each well of the assay plates in 7 uL culture media per well and compounds were tested at 0.17 nM to 10 uM in 3-fold serial dilutions. The cells were then incubated for 48 hours at 37° C. 3 uL of Bright-Glo® (Promega) was added to each well and the plates were read using ViewLux (PerkinElmer).
as §2

SMILES	IC50 [1] [nM]	IC50 (parental Ba/F3 cells) [nM]
NS(=O)(=O)N1CCC(NC(=O)c2cnc3ccc(N4CCC[C@@H]4c4cccc(F)c4)nn23)CC1 [X-29, (R)-6-(2-(3-fluorophenyl)pyrrolidin-1-yl)-N-(1-sulfamoylpiperidin-4-yl)imidazo[1,2-b]pyridazine-3-carboxamide]	239	> 10000
NC(=O)c1cnc2ccc(N3CC(F)(F)C[C@@H]3c3cccc(F)c3)nn12 [X-247, (R)-6-(4,4-difluoro-2-(3-fluorophenyl)pyrrolidin-1-yl)imidazo[1,2-b]pyridazine-3-carboxamide]	34	> 10000
COC[C@H](C)NC(=O)c1cnc2ccc(N3CCC[C@@H]3c3cccc(F)c3)nn12 [X-54]	53	> 10000
O=C(NOCC1CC1)c1cnc2ccc(N3CCC[C@@H]3c3cccc(F)c3)nn12 [X-143]	45	> 10000
NC(=O)c1cnc2ccc(N3CC=C[C@@H]3c3cccc(F)c3)nn12 [X-15, (R)-6-(2-(3-fluorophenyl)-2,5-dihydro-1H-pyrrol-1-yl)imidazo[1,2-b]pyridazine-3-carboxamide]	13	7260
CC(C)(Cc1ccc(F)cc1)NC(=O)c1cnc2ccc(N3CCC[C@@H]3c3cccc(F)c3)nn12 [X-41]	527	9000
Cn1cccc1/C=C/C(=O)c1cnc2ccc(N3CCC[C@@H]3c3cccc(F)c3)nn12 [X-130]	24	> 10000
CCOC(=O)c1cnc2ccc(N3C[C@@H](F)C[C@@H]3c3cc(F)cc(C#N)c3)nn12 [X-243]	2	> 10000
CCOC(=O)c1cnc2ccc(N3C[C@H](F)C[C@H]3c3cccc(F)c3)nn12 [X-166, ethyl 6-((2S,4R)-4-fluoro-2-(3-fluorophenyl)pyrrolidin-1-yl)imidazo[1,2-b]pyridazine-3-carboxylate]	314	> 10000
[2H]C1([2H])C(c2cccc(F)c2)N(c2ccc3ncc(C(N)=O)n3n2)C([2H])([2H])C1([2H])[2H] (centres unmarked) [X-12]	105	> 10000
O=C(NCC(F)F)c1cnc2ccc(N3C[C@@H](F)C[C@@H]3c3cccc(F)c3)nn12 [X-114]	1	7490
O=C(NCCN1CCOCC1)c1cnc2ccc(N3CCC[C@@H]3c3cccc(F)c3)nn12 [X-52]	58	> 10000
NC(=O)c1cnc2ccc(N3C[C@@H](F)C[C@@H]3c3ccc(F)c(F)c3)nn12 [X-240]	198	> 10000
O=C(/C=C/c1cccc(N2CCOCC2)n1)c1cnc2ccc(N3CCC[C@@H]3c3cccc(F)c3)nn12 [X-128]	174	1390
O=C(NCCC(F)(F)F)c1cnc2ccc(N3CCC[C@@H]3c3cccc(F)c3)nn12 [X-76]	34	> 10000
COC(=O)c1cnc2ccc(N3CCC[C@@H]3c3cccc(F)c3)nn12 [X-157]	112	> 10000
O=C(NCc1ccc(N2CC[C@@H](O)C2)nc1)c1cnc2ccc(N3CCC[C@@H]3c3cccc(F)c3)nn12 [X-99]	731	> 10000
[2H]C1([2H])CC[C@H](c2cccc(F)c2)N1c1ccc2ncc(C(N)=O)n2n1 [X-11]	25	> 10000
CC(=O)c1cnc2ccc(N3CCC[C@@H]3c3cccc(F)c3)nn12 [X-125, (R)-1-(6-(2-(3-fluorophenyl)pyrrolidin-1-yl)imidazo[1,2-b]pyridazin-3-yl)ethanone]	219	> 10000
NCC(=O)Nc1cnc2ccc(N3CC(F)(F)C[C@@H]3c3cccc(F)c3)nn12 [X-204, (R)-2-amino-N-(6-(4,4-difluoro-2-(3-fluorophenyl)pyrrolidin-1-yl)imidazo[1,2-b]pyridazin-3-yl)acetamide]	28	> 10000
CC(C)S(=O)(=O)N1CC[C@H](NC(=O)c2cnc3ccc(N4CCC[C@@H]4c4cccc(F)c4)nn23)C1 [X-31]	124	> 10000
Fc1cccc([C@H]2CCCN2c2ccc3ncc(Br)n3n2)c1 [X-1, (R)-3-bromo-6-(2-(3-fluorophenyl)pyrrolidin-1-yl)imidazo[1,2-b]pyridazine]	316	> 10000

SMILES	IC50 [1] [nM]	IC50 (parental Ba/F3 cells) [nM]
O=C(NCCCN1CCOCC1)c1cnc2ccc(N3CCC[C@@H]3c3cccc(F)c3)nn12 [X-58]	390	> 10000
O=C(N[C@@H]1CCC[C@H]1O)c1cnc2ccc(N3CCC[C@@H]3c3cccc(F)c3)nn12 [X-81]	12	> 10000
O=C(NCCO)c1cnc2ccc(N3C[C@@H](F)C[C@@H]3c3cccc(F)c3)nn12 [X-119]	3	> 10000
O=C(NCC(F)(F)C(F)(F)F)c1cnc2ccc(N3CCC[C@H]3c3cccc(F)c3)nn12 [X-60]	35	> 10000
CC(C)(C)ONC(=O)c1cnc2ccc(N3CCC[C@@H]3c3cccc(F)c3)nn12 [X-145]	33	> 10000
COCCONC(=O)c1cnc2ccc(N3CCC[C@H]3c3cccc(F)c3)nn12 [X-148]	28	> 10000
CC(C)[C@H](CO)NC(=O)c1cnc2ccc(N3CCC[C@@H]3c3cccc(F)c3)nn12 [X-102]	31	> 10000
CS(=O)(=O)N1CC[C@H](NC(=O)c2cnc3ccc(N4CCC[C@@H]4c4cccc(F)c4)nn23)C1 [X-30]	31	> 10000
CC(C)(C)NC(=O)c1cnc2ccc(N3CCC[C@@H]3c3cccc(F)c3)nn12 [X-45]	22	> 10000
O=C(NCC1CCCC1)c1cnc2ccc(N3CCC[C@@H]3c3cccc(F)c3)nn12 [X-109]	40	7960
O=C(NC1CCOCC1)c1cnc2ccc(N3CCC[C@@H]3c3cccc(F)c3)nn12 [X-93]	10	> 10000
O=C(NCCN1CCOCC1)c1cnc2ccc(N3C[C@@H](F)C[C@@H]3c3cccc(F)c3)nn12 [X-113]	9	> 10000
O=C(NC1CCCOC1)c1cnc2ccc(N3CCC[C@@H]3c3cccc(F)c3)nn12 (some centres unmarked) [X-97]	8	> 10000
NC(=O)c1cnc2ccc(N3C[C@@H](F)C[C@@H]3c3cc(F)cc(F)c3)nn12 [X-241]	3	6700
O=C(NC1CCCC1)c1cnc2ccc(N3CCC[C@@H]3c3cccc(F)c3)nn12 [X-48]	37	> 10000
CC(C)(C)OC(=O)N1CCC(NC(=O)c2cnc3ccc(N4CCC[C@@H]4c4cccc(F)c4)nn23)CC1 [X-63]	60	> 10000
CC(=O)OC(C)(C)C(=O)Nc1cnc2ccc(N3CCC[C@@H]3c3cccc(F)c3)nn12 [X-188]	46	> 10000
CC(C)(C)[C@@H](CO)NC(=O)c1cnc2ccc(N3CCC[C@@H]3c3cccc(F)c3)nn12 [X-103]	379	> 10000
N#Cc1cnc2ccc(N3CC(F)(F)C[C@@H]3c3cccc(F)c3)nn12 [X-246, (R)-6-(4,4-difluoro-2-(3-fluorophenyl)pyrrolidin-1-yl)imidazo[1,2-b]pyridazine-3-carbonitrile]	56	> 10000
O=C(NCc1cccc(N2CCOCC2)n1)c1cnc2ccc(N3CCC[C@@H]3c3cccc(F)c3)nn12 [X-25]	37	> 8990
CN(C)CCONC(=O)c1cnc2ccc(N3CCC[C@@H]3c3cccc(F)c3)nn12 [X-146]	302	> 10000
